How the values were obtained:
Cav1−/− mice [1] = assay: Lung histology and muscularized distal pulmonary arteries in Cav1−/− mice; type: in vivo, mouse; settings: 8 month old Cav1−/− mice; 1 mg/ml in drinking water for 5 wk
Procedure: Following PBS perfusion, the lung tissues were fixed for 5 min by instillation of 10% PBS-buffered formalin through trachea catheterization at a transpulmonary pressure of 15 cm H2O. After tracheal ligation, harvested lungs were fixed with 10% PBS-buffered formalin overnight at […] with agitation. After paraffin processing, the tissues were cut into semithin 4 to […] thick, and stained with either H & E for histological analysis or an antibody against nitrotyrosine (Upstate Biotechnology) for immunohistochemistry. Immunostaining was developed with a Vectastain ABC kit (Vector Laboratories). Histology and Imaging. Lung tissues were fixed and processed for H & E staining and immunofluorescent staining. for 5 min by instillation of 10% PBS-buffered formalin through trachea catheterization at a transpulmonary pressure of 15 cm H2O, and then overnight at 4° C. with agitation. After paraffin processing, the tissues were cut into semi-thin 4 to […] thick, and stained with H & E for histological analysis. For immunofluorescent staining, antigen retrieval was performed by incubating the slides in 10 mM sodium citrate (pH 6.0) at 95° C. for 10 min. […] The anti-a-SMA-positive pulmonary arterial vessels per field (200×) were counted based on the diameter (<40 μm versus>40 μm). Twenty fields per section were randomly identified and counted. […]

Cav1−/− mice [2] = assay: RVSP in Cav1−/− mice with PH; type: in vivo, mouse; settings: 8 month old Cav1−/− mice; 1 mg/ml in drinking water for 5 wk
Procedure: RVSP was determined as follows. Briefly, following anesthesia, mice were prepared for catheterization. A 1.4 F pressure transducer catheter (Millar Instruments) was carefully inserted via the right external jugular vein into the right ventricle to obtain measurements of RVSP using the Acknowledge software (Biopac Systems, Inc.). To determine lung vascular resistance, mice were anesthetized and prepared for perfusion. Pulmonary arterial (Ppa) and venous (Pv) pressures were monitored continuously through the pulmonary arterial and left atrial cannula, which were connected to a pressure transducer. […] Ppa was measured at steady-state and was plotted against the flow, which was measured by weighing the effluent collected over a one-minute period. […]
To determine whether pharmacological inhibition of eNOS in Cav1^−/− mice can reverse PH, we administered N-Nitro-L-Arginine Methyl Ester (L-NAME), a NOS inhibitor, to Cav1^−/− mice following onset of PH. […] Data are expressed as mean±SD (n=5-7). *, P=0.023 WT versus Cav1^−/−;**, P=0.015 Cav-L versus Cav1^−/−; #, P>0.5 Cav-D versus Cav1^−/−. […] Data are expressed as mean±SD (n=5-7). *, P=0.002 WT versus Cav1^−/−; **, P=0.013 Cav-L versus Cav1^−/−; #, P=0.8 Cav-D versus Cav1^−/−.
Hemodynamic Measurements. RVSP was determined with a 1.4 F pressure transducer catheter (Millar Instruments) and the Acknowledge software (Biopac Systems, Inc.). […]

human PKG-1a = assay: Myc-tagged PKG-1a tyrosine mutants treated with peroxynitrite: kinase assay and tyrosine nitration; type: biochemical; settings: in contrast to wildtype PKG-1
Procedure: Identification of Nitrated Tyrosine Residues of PKG-1a. Tyrosine residue was mutated to Phenylalanine by site-directed mutagenesis following manufacture's instruction (Stratagene). Myc-tagged wild-type and mutant PKG-1a were overexpressed in human lung microvascular endothelial cells and cell lysates were then immunoprecipitated with anti-Myc for 4 hr at RT. […] Following 14 min incubation in 50 mM K2HPO4 buffer at RT, kinase activity was then measured as described above.
(§1) To address the role of peroxynitrite in the mechanism of the observed impairment of PKG activity, we treated human pulmonary artery smooth muscle cells with 3-morpholinosydnonimine (SIN-1), the superoxide and NO donor that forms peroxynitrite simultaneously (30). […] FIG. 9A relates to dose-dependent impairment of PKG activity by peroxynitrite. Purified […] (Promega) was incubated with peroxynitrite at indicated concentrations for 14 min at RT or with DETA NONOate (NONOate) for 30 min in dark at RT. Kinase activity was then assayed. Data is expressed mean+/−SD (n=3). *, P<0.05 versus control (0 μM). FIG. 9B relates to screening of PKG-1a mutants with in vitro kinase assay. […] PKG activity was expressed as pmoles/min/μg cell lysates. […] Data are expressed as mean±SD (n=3), *, P<0.05 versus either PKG-1a mutant. […]

purified PKG-1 = biological target: T1, purified PKG-1 (Bos taurus, UniProt P00516); assay: In vitro kinase assay of purified PKG-1 after peroxynitrite or DETA NONOate; type: biochemical; settings: peroxynitrite at indicated concentrations, 14 min at RT
T1 construct: purchased Promega
T1 sequence (P00516 1-671): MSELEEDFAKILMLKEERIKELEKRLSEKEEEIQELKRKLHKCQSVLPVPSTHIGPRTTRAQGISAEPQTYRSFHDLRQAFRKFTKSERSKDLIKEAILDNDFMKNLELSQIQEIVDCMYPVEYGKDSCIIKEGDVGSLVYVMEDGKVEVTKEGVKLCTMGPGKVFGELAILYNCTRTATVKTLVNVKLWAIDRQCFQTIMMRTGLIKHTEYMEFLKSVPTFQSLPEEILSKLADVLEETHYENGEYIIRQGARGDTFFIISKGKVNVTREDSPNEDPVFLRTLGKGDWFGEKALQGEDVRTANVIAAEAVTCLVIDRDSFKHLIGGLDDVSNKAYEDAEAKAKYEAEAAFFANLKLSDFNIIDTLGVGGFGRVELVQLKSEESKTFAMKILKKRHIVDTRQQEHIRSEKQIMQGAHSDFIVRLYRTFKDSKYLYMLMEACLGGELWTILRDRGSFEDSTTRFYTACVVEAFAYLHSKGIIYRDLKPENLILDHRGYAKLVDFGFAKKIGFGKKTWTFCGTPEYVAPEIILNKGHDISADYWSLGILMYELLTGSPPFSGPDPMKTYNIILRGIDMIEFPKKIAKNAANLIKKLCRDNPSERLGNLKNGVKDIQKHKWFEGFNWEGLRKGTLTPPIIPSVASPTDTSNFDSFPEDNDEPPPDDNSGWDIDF
Procedure: PKG Kinase Assay. In vitro activity of PKG was determined by measuring the transfer of the [g-^32P] phosphate group of ATP to the specific PKG substrate, BPDEtide (Calbiochem) in the absence or presence of exogenous 2.5 mM cGMP as described in Example 13. PKG activity is expressed as picmoles of ^32P incorporated into PKG substrate per min per microgram protein.
as §1, with “assay. At 48 hr post-transfection, myc-tagged WT and PKG-1a mutants were immunoprecipitated with anti-myc beads and aliquoted for incubation with either peroxynitrite (100 μM) or the same amount of 0.1 N NaOH only (CTL).” for “assay.”

| Compound | Number of muscularized distal pulmonary arteries (Cav1−/− mice [1]) | RVSP (Cav1−/− mice [2]) | PKG activity following peroxynitrite treatment (human PKG-1a; PKG-1a with mutation of tyrosine residue 345 or 549, peroxynitrite 100 μM) | Tyrosine nitration following peroxynitrite treatment (human PKG-1a; PKG-1 mutants (tyrosine 345 or 549), peroxynitrite 250 μM, 14 min at RT) | PKG activity (purified PKG-1) |
| --- | --- | --- | --- | --- | --- |
| COC(=O)[C@H](N)CCCN=C(N)N[N+](=O)[O-] [D-NAME] | no effect | no effect | – | – | – |
| O=NOO [peroxynitrite] | – | – | no impairment of PKG activity | diminished tyrosine nitration | decreased PKG activity in a concentration-dependent manner |

Source: US20110171193A1, “COMPOSITIONS AND METHODS FOR TREATING PULMONARY HYPERTENSION” (THE BOARD OF TRUSTEES OF THE UNIVERSITY OF ILLINOIS, priority 2008, published 2011)
